Results as given in patent US20100240040A1, “METHOD FOR SCREENING FOR SELECTIVE MODULATOR OF THE NF-KB PATHWAY ACTIVATION” (INSTITUT PASTEUR, priority 2007, published 2010).

Experiments:
[1] = target: T1, CC2-LZ dimer (Biot-CC2-LZ/His-CC2-LZ) (Mus musculus, UniProt O88522); test: HTRF assay, CC2-LZ dimerization induced by ubiquitin binding; conditions: added to Biot-CC2-LZ/His-CC2-LZ mixture at nM concentration
T1 construct: made in house; Biot-CC2-LZ by chemical synthesis
Excerpt: (§1) The Homogeneous Time Resolved Fluorescence (HTRF®) assay reagents anti-(His)6 monoclonal antibody labeled with XL665 (MABHis6-XL) and streptavidin-Europium cryptate (streptavidin-EuK) were purchased from CIS-Bio. The His-CC2-LZ peptide (SEQ ID NO: 30 and 31) was purified as described in Agou et al., 2004a and the biotin tagged CC2-LZ peptide (SEQ ID NO: 28 and 29) was chemically synthezised as described in Wyler et al., 2007.
All measurements of fluorescence resonance energy transfer (FRET) were performed using the microplate reader Mithras LB 940 (Berthold Technologies). HTRF® principle
In HTRF experiments, the pure His-CC2-LZ protein was labeled by anti-His-XL665 mAb and biot-CC2-LZ was labeled by streptavidin-EuK. […] Upon excitation of Europium cryptate at 320 nm, FRET occurs between these two fluorophores, and XL665 re-emits a specific long-lived fluorescence at 665 nm.
All experiments were carried out in a black microplate Greiner (200 μl) at 25° C. The excitation wavelength was 320 nm and the fluorescence emissions were measured at 620 nm and at 665 nm to normalize the specific signal. Fluorescence emission was recorded at both wavelengths after an 50 μs delay, which reduces background noise introduced by the media and the free acceptor molecules. The FRET signal is calculated using the following equation: […]

Biot-CC2-LZ = target: T2, Biot-CC2-LZ (Mus musculus, UniProt O88522); test: HTRF assay, complex with Biot-CC2-LZ (negative and positive controls); type: binding; conditions: each subunit of CC2-LZ at nM concentration, no ubiquitin
T2 construct: made in house; host or cells: chemical synthesis
Excerpt: as §1
In HTRF experiments, the pure His-CC2-LZ protein was labeled by anti-His-XL665 mAb and biot-CC2-LZ was labeled by streptavidin-EuK. Dimerization of His-CC2-LZ and Biot-CC2-LZ leads the donor (Steptavidin-EuK) and the acceptor (anti-His-XL665) into close proximity. Upon excitation of Europium cryptate at 320 nm, FRET occurs between these two fluorophores, and XL665 re-emits a specific long-lived fluorescence at 665 nm.
All experiments were carried out in a black microplate Greiner (200 μl) at 25° C. The excitation wavelength was 320 nm and the fluorescence emissions were measured at 620 nm and at 665 nm to normalize the specific signal. Fluorescence emission was recorded at both wavelengths after an 50 μs delay, which reduces background noise introduced by the media and the free acceptor molecules. The FRET signal is calculated using the following equation:
ΔF=[(R−Rneg)/Rneg]*100 (1) […]

CC2-LZ = CC2-LZ (Mus musculus, UniProt O88522); test: Affinity of CC2-LZ dimerization; type: binding
Chain of CC2-LZ (O88522 250-339 limits assumed): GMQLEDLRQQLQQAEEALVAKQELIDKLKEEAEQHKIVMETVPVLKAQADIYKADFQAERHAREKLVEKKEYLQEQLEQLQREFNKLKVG

T1 sequence (O88522 with tags, fused parts or gaps, one chain of several): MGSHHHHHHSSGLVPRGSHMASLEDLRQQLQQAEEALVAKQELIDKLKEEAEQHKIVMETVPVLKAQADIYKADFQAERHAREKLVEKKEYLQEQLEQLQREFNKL

Row | FRET signal (in words) [1] | FRET signal (in words) (Biot-CC2-LZ) | Kd (CC2-LZ) [µM] | Substance
1 | no FRET signal was detected |  |  | GST: GST protein alone, control
2 |  | no FRET signal was observed | 22 | LEDLRQQLQQAEEALVAKQELIDKLKEEAEQHKIVMETVPVLKAQADIYKADFQAERHAREKLVEKKEYLQEQLEQLQREFNKL [CC2-LZ]
